The text below walks through data of patent US20220273659A1, “HETEROCYCLIC COMPOUNDS AS KINASE INHIBITORS” (NUVATION BIO INC., priority 2019, published 2022).

The target in the test is T1, CDK2 (cyclin E1) (Homo sapiens, UniProt P24941).
T1 construct: purchased Invitrogen Life Technologies (assay service)
In words: LanthaScreen Eu Kinase Binding Assay. The following applies: read-out: CDK2/E IC50. Here is the method:
0.16 μL of 100×test compound in 100% DMSO (at specific solutions) were mixed with 3.84 μL of Kinase Buffer (50 mM HEPES pH 7.5, 0.01% BRIJ-35, 10 mM MgCl2, 1 mM EGTA), 8.0 μL of 2× Kinase (2.5 nM)/Antibody (Eu-anti-GST, 2 nM) Mixture and 4.0 μL of 4×Tracer (Tracer 236, 100 nM). The plates were shaken for 30 seconds, and incubated for 60 minutes at room temperature. The plates were read on fluorescence plate reader with Dual emission at 615 nm and 665 nm.
The following equations were used for LanthaScreen Eu Kinase Binding Assay Data Analysis. Percent inhibition (100-% activity) was fitted to the “four-parameter logistic model” in XLfit for determination of IC50 values.
Background: TR-FRET usually uses a lanthanide donor and a delayed reading to cut background.

For the compound `N#Cc1cc2cnc(Nc3ccc4c(c3)CCNC4)nc2n(C2CCCC2)c1=O` [Compound No. 31, 8-cyclopentyl-7-oxo-2-((1,2,3,4-tetrahydroisoquinolin-6-yl)amino)-7,8-dihydropyrido[2,3-d]pyrimidine-6-carbonitrile], the IC50 is 74 nM.
